# Experimental data taken from patent US20260226068A1, “IMIDAZOTRIAZINE IL-17A MODULATORS AND USES THEREOF” (DICE ALPHA, INC., priority 2023, published 2026).
# Key:
# IL-17A/A = target: T1, IL-17A/A (Homo sapiens, UniProt Q16552); assay: IL-17A/A HEK-Blue cell assay (SEAP reporter); assay type: cell-based; settings: HEK-Blue IL-17A reporter cells, IL17A/A 5 ng/mL, 20 hours, SEAP read at A630; read-out: HEK-Blue IL17AA (IC50 for IL-17A/A inhibition)
# T1 construct: purchased Genscript Z03228
# T1 sequence (Q16552 24-155): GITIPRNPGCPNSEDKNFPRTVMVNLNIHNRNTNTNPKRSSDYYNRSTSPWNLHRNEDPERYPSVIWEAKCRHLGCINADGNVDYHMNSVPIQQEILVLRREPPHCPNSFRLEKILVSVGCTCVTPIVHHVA
# IL-17A/F = target: T2, IL-17A/F (Homo sapiens, UniProt Q16552+Q96PD4); assay: IL-17A/F HEK-Blue cell assay (SEAP reporter); assay type: cell-based; settings: HEK-Blue IL-17A reporter cells, IL17A/F 5 ng/mL, 20 hours, SEAP read at A630; read-out: HEK-Blue IL17AF (IC50 for IL-17A/F inhibition)
# T2 construct: purchased R&D Systems
# T2 sequence (Q16552 24-155): T1 sequence (Q16552 24-155)
# T2 sequence (Q96PD4 31-163): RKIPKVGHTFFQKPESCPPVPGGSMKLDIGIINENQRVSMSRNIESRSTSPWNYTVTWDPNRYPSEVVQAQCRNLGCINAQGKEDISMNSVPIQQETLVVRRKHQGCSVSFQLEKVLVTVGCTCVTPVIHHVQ
# [1] = Mouse oral bioavailability; assay type: in vivo; settings: C57BL/6J mice, PO 10 mg/kg vs IV 1 mg/kg, plasma AUC, read-out: % F (Mouse), oral bioavailability
# Description: The test compound is administered to C57BL/6J mice intravenously (IV) at 1 mg/kg or orally (PO) at 10 mg/kg using vehicles composed of 10% DMA, 70% Polyethylene glycol 400, and 20% purified water; or 10% DMA, 50% Polyethylene glycol 400, and 40% purified water. Serial blood collections occur at 0.08, 0.25, 0.5, 1, 2, 4, 8 and 24 h post IV bolus dose administration, and 0.25, 0.5, 1, 2, 4, 8 and 24 h post oral dose administration. Blood samples are treated with EDTA anticoagulant. Plasma is isolated by centrifugation and stored at −70° C. until analysis by LC-MS/MS. Test article concentration is determined in plasma and uploaded into the Phoenix WinNonlin system where noncompartmental analysis is used to calculate Area Under the Curve (AUC) for both IV and PO arms. Bioavailability (% F) is calculated via the following equation,
# % F=(AUCPO×DoseIV)/(AUCIV×DosePO)×100
SMILES,IC50 (IL-17A/A) [µM],IC50 (IL-17A/F) [µM],bioavailability [1] [%]
O=C(N[C@H](c1cn2nc(CC3C[C@@H](C(F)(F)F)CNC3=O)c(N3CCOCC3)nc2n1)C1CCC(F)(F)CC1)c1nonc1C1CC1 (stereo partly drawn) [Compound 56],< 0.1,> 1,87
"CCn1nccc1C(=O)N[C@H](c1cn2nc(C[C@H]3C[C@@H](C(F)(F)F)CNC3=O)c(C3CCOCC3)nc2n1)C1CCC(F)(F)CC1 [Compound 88, N-((1S)-(4,4-difluorocyclohexyl)(2-(((3R,5R)-2-oxo-5-(trifluoromethyl)piperidin-3-yl)methyl)-3-(tetrahydro-2H-pyran-4-yl)imidazo[1,2-b][1,2,4]triazin-6-yl)methyl)-1-ethyl-1H-pyrazole-5-carboxamide]",< 0.1,0.1 to 1,69
"Cc1nonc1C(=O)N[C@H](c1cn2nc(C[C@H]3C[C@@H](C(F)(F)F)CNC3=O)c(C3CCOCC3)nc2n1)C1CCC(F)(F)CC1 [Compound 148, N-((1S)-(4,4-difluorocyclohexyl)(2-(((3R,5R)-2-oxo-5-(trifluoromethyl)piperidin-3-yl)methyl)-3-(tetrahydro-2H-pyran-4-yl)imidazo[1,2-b][1,2,4]triazin-6-yl)methyl)-4-methyl-1,2,5-oxadiazole-3-carboxamide]",< 0.1,> 1,91
"CCn1nccc1C(=O)N[C@H](c1cn2nc(C[C@H]3C[C@@H](C(F)(F)F)CNC3=O)c(C3CC4CCC(C3)O4)nc2n1)C1CCC(F)(F)CC1 (stereo partly drawn) [Compound 153, N-((1S)-(3-(8-oxabicyclo[3.2.1]octan-3-yl)-2-(((3R,5R)-2-oxo-5-(trifluoromethyl)piperidin-3-yl)methyl)imidazo[1,2-b][1,2,4]triazin-6-yl)(4,4-difluorocyclohexyl)methyl)-1-ethyl-1H-pyrazole-5-carboxamide]",< 0.1,0.1 to 1,43
CC(C)n1ncnc1C(=O)N[C@H](c1cn2nc(C[C@H]3C[C@@H](C(F)(F)F)CNC3=O)c(C3CCOCC3)nc2n1)C1CCC(F)(F)CC1 [Compound 229],< 0.1,> 1,83
